The values that follow are results of earlier work, collected in patent US7947458B1, “Placental human neurokinin B precursor” (Perinatal Diagnostics Limited, priority 1999, dated 2011).

In one data set the target is NK1 receptor (Homo sapiens, UniProt P25103).
A further data set addresses T1, NK2 receptors (Homo sapiens, UniProt P21452).
T1 sequence (P21452 1-398): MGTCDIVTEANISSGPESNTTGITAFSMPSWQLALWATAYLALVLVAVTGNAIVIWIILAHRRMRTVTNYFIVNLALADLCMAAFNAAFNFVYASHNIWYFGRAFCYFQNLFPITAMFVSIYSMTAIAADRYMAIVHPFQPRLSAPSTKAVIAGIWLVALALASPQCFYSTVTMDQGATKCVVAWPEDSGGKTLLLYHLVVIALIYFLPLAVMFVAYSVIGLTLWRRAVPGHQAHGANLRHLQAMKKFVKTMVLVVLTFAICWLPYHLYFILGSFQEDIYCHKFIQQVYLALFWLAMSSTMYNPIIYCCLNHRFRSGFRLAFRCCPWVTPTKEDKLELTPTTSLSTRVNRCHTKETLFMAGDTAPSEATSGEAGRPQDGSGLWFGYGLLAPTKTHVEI

For data set [1] the following is noted: dog, in vivo.
For another data set, the target named is T2, NK3 receptor (Homo sapiens, UniProt P29371).
T2 sequence (P29371 1-465): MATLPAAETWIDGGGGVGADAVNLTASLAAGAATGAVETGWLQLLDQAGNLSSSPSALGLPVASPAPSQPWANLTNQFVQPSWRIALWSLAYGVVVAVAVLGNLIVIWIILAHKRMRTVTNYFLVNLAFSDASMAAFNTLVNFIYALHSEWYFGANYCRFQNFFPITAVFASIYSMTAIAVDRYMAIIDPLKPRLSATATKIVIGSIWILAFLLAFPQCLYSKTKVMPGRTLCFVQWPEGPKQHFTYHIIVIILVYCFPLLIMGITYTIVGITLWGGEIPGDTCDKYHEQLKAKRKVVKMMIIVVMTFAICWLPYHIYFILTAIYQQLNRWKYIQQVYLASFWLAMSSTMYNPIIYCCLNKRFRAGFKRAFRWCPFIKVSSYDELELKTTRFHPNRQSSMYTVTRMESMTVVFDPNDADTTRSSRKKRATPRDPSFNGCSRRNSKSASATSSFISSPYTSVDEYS

The conditions of data set [2]: intravenous injections, guinea pigs.
For data set [3] the following is noted: intravenous infusion, rats.

Where two headings read alike, the source gives them in different places. Ends that are not written are not given here.

Sequence of NK1 receptor (P25103 whole entry, species assumed): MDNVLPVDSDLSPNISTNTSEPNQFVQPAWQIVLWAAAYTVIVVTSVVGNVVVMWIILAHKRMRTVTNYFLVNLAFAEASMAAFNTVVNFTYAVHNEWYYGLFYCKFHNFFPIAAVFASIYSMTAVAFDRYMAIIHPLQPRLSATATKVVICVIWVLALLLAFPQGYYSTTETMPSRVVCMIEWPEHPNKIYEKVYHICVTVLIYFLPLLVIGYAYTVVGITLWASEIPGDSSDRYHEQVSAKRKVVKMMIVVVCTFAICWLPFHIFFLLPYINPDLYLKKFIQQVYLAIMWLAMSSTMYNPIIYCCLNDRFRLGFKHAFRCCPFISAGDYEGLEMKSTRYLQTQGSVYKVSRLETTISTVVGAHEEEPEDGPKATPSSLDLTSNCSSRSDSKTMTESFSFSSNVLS

`CN(Cc1ccccc1)C(=O)[C@H](Cc1ccc2ccccc2c1)NC(=O)[C@@H]1C[C@@H](O)CN1C(=O)c1cn(C)c2ccccc12` [FK 888]: the “affinity for the NK1 receptor” value at NK1 receptor is recorded as “high affinity”.
As to `CC(=O)NC1(c2ccccc2)CCN(CC[C@H](CN(C)C(=O)c2ccccc2)c2ccc(Cl)c(Cl)c2)CC1` [SR 48968], the “affinity and selectivity for NK2 receptors” value on NK2 receptors was “high affinity and selectivity”.
In the case of “neurokinin A (HKTDSFVGLM-NH2; ends and bridges not checked; UniProt P20366 98-107, looked up) [substance K, tachykinin designated substance K or neurokinin A]”, the “effect on heart rate” value in data set [1] was “slow down the heart rate”.
For neurokinin B [NKB], the “vasoconstriction, potency rank among neurokinins” value with mesenteric vascular bed was “most potent neurokinin to cause vasoconstriction”. In the data set on hepatic portal vein, the “contraction, potency rank among neurokinins” value is given as “most potent neurokinin”. For the same compound, the “potency rank among tachykinins at the NK3 receptor” value with NK3 receptor is reported as “most potent member of the family”. In addition, the results for the “effect on blood pressure” value in data set [2] and in data set [3] were “dose related hypertension” and “increase in blood pressure”, respectively.
Turning to “substance P (RPKPQQFFGLM-NH2; ends and bridges not checked; UniProt P20366 58-68, looked up)”, the “effect on heart rate” value in data set [1] is recorded as “slow down the heart rate”.
